Data as given in US10100064B2, “Purine inhibitors of human phosphatidylinositol 3-kinase delta” (Merck Sharp & Dohme Corp., priority 2014, dated 2018).

Columns and labels:
PI3Kalpha = biological target: T1, PI3Kalpha (Homo sapiens, UniProt P42336); assay: HTRF PI3K biochemical assay, alpha isoform (selectivity versus delta); conditions: relative ratio PI3K-alpha IC50 value / PI3K-delta IC50 value
T1 construct: purchased Upstate; Millipore 14-602
Text: (§1) HTRF PI3K Biochemical Assay to Measure Intrinsic Potency of Compound Inhibitors
(§2) The PI3-Kinase biochemical assays were developed to measure the intrinsic potency and compound dependent inhibition of the alpha, beta, delta, and gamma PI3K isoform enzymes. This assay was developed and further optimized from a kit produced by Upstate (Millipore catalog #33-047) and has been configured for HTS and SAR screening. Briefly, this procedure exploits the exquisite specificity and high affinity binding of […] phosphatidyl(3,4,5)triphosphate (PIP3) to the GRP1 pleckstrin homology (PH) domain to generate the signal. In the absence of PIP3, an HTRF (Homogeneous Time-Resolved Fluorescence energy transfer) complex is formed consisting of europium (Eu)-labeled anti-GST, GSTtagged GRP1-PH domain, biotin-PIP3 and streptavidin conjugated APC. The native PIP3 produced by PI3-Kinase activity disrupts in a competitive manner the biotin-PIP3 from the PH domain, resulting in the loss of energy transfer (HTRF complex) and a decrease in the signal. The format of this assay is the same for all 4 isoforms of PI3K; the differences lie in the concentration of enzyme used to achieve robust assay window. The alpha, beta, and delta assays are run at 0.5, 1, and 0.3 nM enzymes and the gamma assay is run at 5 nM enzyme. The ATP concentration is 100 uM in the alpha, beta, and delta assays and 50 uM ATP in the gamma assay. All reactions are run at 5 uM PIP2.
(§3) Compounds are serially diluted (3-fold in 100% DMSO) across a 384-well polypropylene source plated from column 3 to column 12 and column 13 to column 22, to yield 10 concentration dose response for each test compound. Columns 1, 2, 23 and 24 contain either only DMSO or pharmacological known control inhibitor. Once titrations are made, 2.5 nL of the compounds on 384 well plates are reformatted and transferred by acoustic dispense in quadruplicates to a 1536 assay plate (Greiner) to assay across all four PI3K isoform enzymes.
(§4) The PI3-Kinase biochemical assay was optimized using the HTRF kit provided by Upstate (Millipore). The assay kit contains six reagents: 1) 4× Reaction Buffer; 2) native PIP2 (substrate); 3) Stop (EDTA); 4) Detection Mix A (Streptavidin-APC); 5) Detection Mix B (Eu-labeled Anti-GST plus GST-tagged PH-domain); 6) Detection Mix C. In addition, the following items were obtained or purchased; PI3Kinase (alpha 14-602, beta 14-603, gamma 14-558 and delta 14-604 from Upstate; Millipore), dithiothreitol (Sigma, D-5545), Adenosine-5′ triphosphate (InVitrogen, Cat#AS001A), native PIP3 (PI(3,4,5)P3, diC8, H^+, CELLSIGNALS, INC. Cat #907) DMSO (Sigma, 472301).
(§5) PI3Kinase Reaction Buffer is prepared by dilution the stock 1:4 with de-ionized water. DTT, PIP2 and Biotin-PIP3 were added to 1536 assay plate at a final concentration of 5 mM, […] 25 nM on the day of use. Enzyme addition and compound pre-incubation are initiated by the addition of 1.25 ul of PI3K (at twice its final concentration) in the 1× reaction buffer to all wells using a BioRaptor. Plates are incubated at room temperature for 15 minutes. Reactions are initiated by addition of 1.25 ul of 2× substrate solution (PIP2 and ATP in 1× reaction buffer) using BioRaptor. Plates are incubated in humidified chamber at room temperature for one hour. Reactions are quenched by addition of 0.625 uL of stop solution to all wells using the BioRaptor. The quenched reactions are then processed to detect product formation by adding 0.625 uL of Detection Solution to all wells using the BioRaptor (Detection mix C, Detection Mix A, and Detection Mix B combined together in an 18:1:1 ratio prepared 2 hours prior to use). Following a one hour incubation in the dark, the HTRF signal is measured on the Envision plate reader set for 330 nm excitation and dual emission detection at […]. […]

PI3Kdelta = biological target: T2, PI3Kdelta (Homo sapiens, UniProt O00329); assay: HTRF PI3K biochemical assay, delta isoform; conditions: 0.3 nM enzyme, 100 uM ATP, 5 uM PIP2, form screened (Neutral or TFA salt) given per compound
T2 construct: purchased Upstate; Millipore 14-604
T2 sequence (O00329 whole entry, canonical isoform): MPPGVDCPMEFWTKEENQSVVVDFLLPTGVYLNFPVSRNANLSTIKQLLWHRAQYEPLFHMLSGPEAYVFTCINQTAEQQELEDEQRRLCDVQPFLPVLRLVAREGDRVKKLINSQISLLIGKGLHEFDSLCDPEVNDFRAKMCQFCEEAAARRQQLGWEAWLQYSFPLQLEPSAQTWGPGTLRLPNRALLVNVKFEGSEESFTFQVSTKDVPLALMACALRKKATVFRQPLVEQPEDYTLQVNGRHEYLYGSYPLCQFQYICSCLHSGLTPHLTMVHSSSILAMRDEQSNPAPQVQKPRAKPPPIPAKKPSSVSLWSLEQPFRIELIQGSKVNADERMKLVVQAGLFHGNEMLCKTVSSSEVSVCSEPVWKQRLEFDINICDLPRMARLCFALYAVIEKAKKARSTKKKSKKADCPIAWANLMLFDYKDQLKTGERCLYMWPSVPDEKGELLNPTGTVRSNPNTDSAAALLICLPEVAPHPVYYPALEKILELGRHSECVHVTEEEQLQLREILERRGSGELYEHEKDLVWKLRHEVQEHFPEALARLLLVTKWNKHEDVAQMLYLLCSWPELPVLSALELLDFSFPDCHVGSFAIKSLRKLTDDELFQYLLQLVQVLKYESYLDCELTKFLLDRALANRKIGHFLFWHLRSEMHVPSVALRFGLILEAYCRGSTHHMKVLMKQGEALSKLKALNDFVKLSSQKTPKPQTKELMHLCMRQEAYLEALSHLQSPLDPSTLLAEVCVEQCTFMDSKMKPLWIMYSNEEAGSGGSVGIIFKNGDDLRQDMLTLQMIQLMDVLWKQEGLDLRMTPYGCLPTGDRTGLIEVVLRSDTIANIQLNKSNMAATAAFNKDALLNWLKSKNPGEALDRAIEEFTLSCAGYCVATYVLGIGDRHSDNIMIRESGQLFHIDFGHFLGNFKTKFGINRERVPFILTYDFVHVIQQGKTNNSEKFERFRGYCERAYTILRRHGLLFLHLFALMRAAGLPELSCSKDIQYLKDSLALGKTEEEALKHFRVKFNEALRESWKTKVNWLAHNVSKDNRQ
T2 sequence (P27986 whole entry partner, canonical isoform): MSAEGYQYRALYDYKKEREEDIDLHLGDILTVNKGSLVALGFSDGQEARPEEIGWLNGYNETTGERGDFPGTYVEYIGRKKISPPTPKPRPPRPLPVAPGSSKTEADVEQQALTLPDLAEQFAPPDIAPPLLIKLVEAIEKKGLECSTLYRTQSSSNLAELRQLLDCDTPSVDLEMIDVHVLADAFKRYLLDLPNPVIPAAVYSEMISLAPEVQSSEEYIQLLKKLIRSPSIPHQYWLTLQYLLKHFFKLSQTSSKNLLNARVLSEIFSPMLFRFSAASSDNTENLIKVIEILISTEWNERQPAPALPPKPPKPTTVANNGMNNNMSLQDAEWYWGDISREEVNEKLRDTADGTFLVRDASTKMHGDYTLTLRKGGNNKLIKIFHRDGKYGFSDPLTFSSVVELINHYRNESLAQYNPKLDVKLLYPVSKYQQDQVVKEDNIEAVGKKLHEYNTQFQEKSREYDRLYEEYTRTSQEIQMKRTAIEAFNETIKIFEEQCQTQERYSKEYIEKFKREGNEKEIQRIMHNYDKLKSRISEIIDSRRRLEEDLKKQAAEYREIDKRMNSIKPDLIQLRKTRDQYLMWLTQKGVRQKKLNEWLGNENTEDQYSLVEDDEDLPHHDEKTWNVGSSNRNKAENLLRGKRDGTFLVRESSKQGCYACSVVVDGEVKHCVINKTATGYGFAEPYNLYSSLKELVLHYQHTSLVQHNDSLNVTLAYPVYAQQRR
Text: as §1, §2, §3, §4, §5

T1 sequence (P42336 whole entry, canonical isoform): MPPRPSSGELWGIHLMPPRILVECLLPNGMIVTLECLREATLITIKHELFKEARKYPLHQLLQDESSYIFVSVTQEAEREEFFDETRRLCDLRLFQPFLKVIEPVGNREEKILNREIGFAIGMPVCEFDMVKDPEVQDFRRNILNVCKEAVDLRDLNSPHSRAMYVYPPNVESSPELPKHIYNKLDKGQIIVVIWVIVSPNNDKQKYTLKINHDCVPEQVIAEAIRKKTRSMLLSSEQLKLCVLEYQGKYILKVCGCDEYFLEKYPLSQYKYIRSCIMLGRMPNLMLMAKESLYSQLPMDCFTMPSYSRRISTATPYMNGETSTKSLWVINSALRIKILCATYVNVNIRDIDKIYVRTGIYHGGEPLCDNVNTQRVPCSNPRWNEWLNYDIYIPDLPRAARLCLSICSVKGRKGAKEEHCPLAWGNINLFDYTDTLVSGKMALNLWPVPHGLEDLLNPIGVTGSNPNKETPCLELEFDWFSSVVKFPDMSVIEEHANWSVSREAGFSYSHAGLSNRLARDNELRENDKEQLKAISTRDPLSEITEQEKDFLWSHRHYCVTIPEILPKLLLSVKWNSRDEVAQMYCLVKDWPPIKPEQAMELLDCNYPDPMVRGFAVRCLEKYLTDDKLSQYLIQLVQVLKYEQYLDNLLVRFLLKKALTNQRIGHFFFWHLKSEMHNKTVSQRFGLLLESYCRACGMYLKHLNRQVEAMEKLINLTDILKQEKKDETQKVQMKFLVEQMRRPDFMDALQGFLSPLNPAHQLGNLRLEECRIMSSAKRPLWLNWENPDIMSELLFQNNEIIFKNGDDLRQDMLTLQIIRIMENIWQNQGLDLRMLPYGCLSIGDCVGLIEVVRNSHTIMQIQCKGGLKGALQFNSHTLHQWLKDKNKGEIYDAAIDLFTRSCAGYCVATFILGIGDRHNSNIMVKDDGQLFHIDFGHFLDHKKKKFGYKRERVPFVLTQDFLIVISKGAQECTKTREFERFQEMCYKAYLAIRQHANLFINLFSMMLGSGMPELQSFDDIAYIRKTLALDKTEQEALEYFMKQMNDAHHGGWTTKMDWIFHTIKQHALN
T1 sequence (P27986 whole entry partner, canonical isoform): as the sequence (P27986 whole entry partner, canonical isoform) above

| Structure (SMILES) | Selectivity versus PI3Kalpha (PI3Kalpha) | IC50 (PI3Kdelta) [nM] |
| --- | --- | --- |
| CCn1c(-c2cnc(C)nc2)nc2c(NC3CCc4c(c(C(C)C)nn4CCO)C3)ncnc21 (single isomer, unassigned) [Compound 2-11, (S or R)-2-[5-{[9-ethyl-8-(2-methylpyrimidin-5-yl)-9H-purin-6-yl]amino}-3-(1-methylethyl)-4,5,6,7-tetrahydro-1H-indazol-1-yl]ethanol] | >10 | 2.1 |
| CCn1c(-c2cnc(C)nc2)nc2c(NC3CCc4c(c(C(C)C)nn4C(=O)OC(C)(C)C)C3)ncnc21 (racemic) [Compound 2-16, (S and R)-tert-butyl 5-{[9-ethyl-8-(2-methylpyrirnidin-5-yl)-9H-purin-6-yl]amino}-3-(1-methylethyl)-4,5,6,7-tetrahydro-1H-indazole-1-carboxylate] | >10 | < 1 |
| CCn1c(I)nc2c(NC3CCc4nnc(C5CC5)n4C3)ncnc21 (single isomer, unassigned) [Compound 1-27, (S or R)-N-[3-cyclopropyl-5,6,7,8-tetrahydro[1,2,4]triazolo[4,3-a]pyridin-6-yl]-9-ethyl-8-iodo-9H-purin-6-amine] | >10 | 151 |
| CCn1c(-c2cnc(C)nc2)nc2c(NC3CCc4nnc(C5CC5)n4C3)ncnc21 (single isomer, unassigned) [Compound 1-1, (S or R)-N-(3-cyclopropyl-5,6,7,8-tetrahydro[1,2,4]triazolo[4,3-a]pyridin-6-yl)-9-ethyl-8-(2-methylpyrimidin-5-yl)-9H-purin-6-amine] | >10 | 4.2 |
| CCn1c(-c2cnc(C)nc2)nc2c(NC3CCc4c(c(C(C)C)nn4C(C)=O)C3)ncnc21 (racemic) [Compound 2-12, (S and R)-N-[1-acetyl-3-(1-methylethyl)-4,5,6,7-tetrahydro-1H-indazol-5-yl]-9-ethyl-8-(2-methylpyrimidin-5-yl)-9H-purin-6-amine] | >10 | 15 |
| CCn1c(-c2cnc(C)nc2)nc2c(NC3CCc4[nH]nc(C5CC5)c4C3)ncnc21 (single isomer, unassigned) [Compound 2-2, (S or R)-N-[3-cyclopropyl-4,5,6,7-tetrahydro-1H-indazol-5-yl]-9-ethyl-8-(2-methylpyrimidin-5-yl)-9H-purin-6-amine] | >10 | 2.9 |
| CCn1c(-c2cnc(C)nc2)nc2c(NC3CCc4nnc(C(C)C)n4C3)ncnc21 (single isomer, unassigned) [Compound 1-4, (S or R)-9-ethyl-N-[3-(1-methylethyl)-5,6,7.8-tetrahydro[1,2,4]triazolo[4,3-a]pyridin-6-yl]-8-(2-methylpyrimidin-5-yl)-9H-purin-6-amine] | >10 | 46 |
| CCn1c(-c2cnc(OC)c(C)c2)nc2c(NC3CCc4nnc(C5CC5)n4C3)ncnc21 (racemic) [Compound 1-15, (S and R)-N-(3-cyclopropyl-5,6,7,8-tetrahydro[1,2,4]triazolo[4,3-a]pyridin-6-yl)-9-ethyl-8-(6-methoxy-5-methylpyridin-3-yl)-9H-purin-6-amine] | >10 | < 1 |
| CCn1c(-n2cnc(C(F)(F)F)c2)nc2c(NC3CCc4nnc(C(C)C)n4C3)ncnc21 (single isomer, unassigned) [Compound 1-25, 9-ethyl-N-[(6(S or R))-3-(1-methylethyl)-5,6,7,8-tetrahydro[1,2,4]triazolo[4,3-a]pyridin-6-yl]-8-[4-(trifluoromethyl)-1H-imidazol-1-yl]-9H-purin-6-amine] | >10 | 24 |
| CCn1c(-c2cnc(C)nc2)nc2c(NC3CCc4ncc(C5CC5)n4C3)ncnc21 (single isomer, unassigned) [Compound 4-1, (S or R)-N-(3-cyclopropyl 5,6,7,8-tetrahydroimidazo[1,2-a]pyridin-6-yl)-9-ethyl-8-(2-methylpyrimidin-5-yl)-9H-purin-6-amine] | >10 | 6.9 |
| CCn1c(-c2cnc(C)nc2)nc2c(NC3CCc4ncc(C(C)C)n4C3)ncnc21 (single isomer, unassigned) [Compound 4-4, (S or R)-9-ethyl-N-[3-(1-methylethyl)-5,6,7,8-tetrahydroimidazo[1,2-a]pyridin-6-yl]-8-(2-methylpyrimidin-5-yl)-9H-purin-6-amine] | >10 | 210 |
| CCn1c(-c2cnn(-c3ccccc3)c2)nc2c(NC3CCc4nnc(C(C)C)n4C3)ncnc21 (single isomer, unassigned) [Compound 1-23, (S or R)-9-ethyl-N-[3-(1-mtthylethyl)-5,6,7,8-tetrahydro[1,2,4]triazolo[4,3-a]pyridin-6-yl]-8-(1-phenyl-1H-pyrazol-4-yl)-9H-purin-6-amine] | >10 | < 1 |

Continued, values first:

| Selectivity versus PI3Kalpha (PI3Kalpha) | IC50 (PI3Kdelta) [nM] | Structure (SMILES) |
| --- | --- | --- |
| >10 | 5.7 | CCn1c(-c2cnc(C)nc2)nc2c(NC3CCc4ncn(C(C)C)c4C3C)ncnc21 (single isomer, unassigned) [Compound 5-21, 9-ethyl-N-[((6S, 7S) or (6R, 7R))-7-methyl-1-(1-methylethyl)-4,5,6,7-tetrahydro-1H-benzimidazol-6-yl]-8-(2-methylpyrimidin-5-yl)-9H-purin-6-amine] |
| >10 | 180 | CCn1c(-c2ccc(C(F)(F)F)cc2)nc2c(NC3CCc4ncn(C5CC5)c4C3)ncnc21 (single isomer, unassigned) [Compound 5-4, (S or R)-N-(1-cyclopropyl-4,5,6,7-tetrahydro-1H-benzimidazol-6-yl)-9-ethyl-8-[4-(trifluoromethyl)phenyl]-9H-purin-6-amine] |
| >10 | < 1 | CCn1c(-c2cnc(C)nc2)nc2c(NC3CCc4nc(C(F)F)n(C5CC5)c4C3)ncnc21 (single isomer, unassigned) [Compound 5-10, (S or R)-N-[1-cyclopropyl-2-(difluoromethyl)-4,5,6,7-tetrahydro-1H-benzimidazol-6-yl]-9-ethyl-8-(2-methylpyrimidin-5-yl)-9H-purin-6-amine] |
| >10 | 120 | CCn1c(-c2cnc(C)nc2)nc2c(NC3Cc4c(ncn4C(C)C)CC3C)ncnc21 (single isomer, unassigned) [Compound 5-20, 9-ethyl-N-[trans-5-methyl-1-(1-methylethyl)-4,5,6,7-tetrahydro-1H-benzimidazol-6-yl]-8-(2-methylpyrimidin-5-yl)-9H-purin-6-amine] |
| >10 | 180 | CCn1c(-c2ccc(C(F)(F)F)nc2)nc2c(NC3CCc4ncn(C5CC5)c4C3)ncnc21 (single isomer, unassigned) [Compound 5-3, (S or R)-N-(1-cyclopropyl-4,5,6,7-tetrahydro-1H-benzimidazol-6-yl)-9-ethyl-8-[6-(trifluoromethyl)pyridin-3-yl]-9H-purin-6-amine] |
| >10 | 170 | CCn1c(C(F)F)nc2c(NC3CCc4ncn(C5CC5)c4C3)ncnc21 (single isomer, unassigned) [Compound 5-6, (S or R)-N-(1-cyclopropyl-4,5,6,7-tetrahydro-1H-benzimidazol-6-yl)-8-(difluoromethyl)-9-ethyl-9H-purin-6-amine] |
